Key:
Assay type in all cases: cell-based
[1] = test system: porcine embryonic stem cells
[2] = test system: porcine embryonic stem cells; settings: for proportion of cells undergoing cell division / proliferation rate as the concentration increased (Ki-67): various concentrations in LDN-193189-containing medium
[3] = test system: porcine embryonic stem cells grown on feeder cells; experiment: pluripotency marker staining of cells grown on feeder cells
Description: The effect of medium for feeder cell-free culture containing LDN-193189 on porcine embryonic stem cells grown on feeder cells was confirmed.

[4] = test system: porcine embryonic stem cells; experiment: qPCR analysis in culture medium containing FBS; settings: environment containing FBS
[5] = test system: porcine embryonic stem cells; remark: listed apart in the source
Description: To analyze the effect of LDN-193189, which is an ALK2/3 inhibitor, on feeder cell-free culture of porcine embryonic stem cells, LDN-193189 cytotoxicity was confirmed through annexin V staining (FIG. 1). […] In addition, treatment at a concentration of 1000 nM or more for 24 hours or more induced apoptosis of most cells.
To confirm the optimal concentration of “FF-embryonic stem cell culture medium” containing LDN-193189 from 100 nM to 1000 nM, the concentration was subdivided and annexin V staining was performed (FIG. 3A). […] In fact, LDN-193189 is known to inhibit the activin A signaling system involved in stem cell proliferation at high concentrations.

[6] = test system: porcine embryonic stem cells grown on feeder cells; experiment: qPCR analysis of cells grown on feeder cells
Description: Treatment with LDN-193189 reduced the spontaneous differentiation of porcine embryonic stem cells grown on feeder cells and enhanced the expression of the SSEA4 marker. This is presumed to be because it suppresses the SMAD1/5 signaling system involved in mesodermal differentiation and activates the SMAD2/3 signaling involved in the proliferation of stem cells. In addition, qPCR analysis confirmed that treatment with LDN-193189 reduced the expression of genes involved in the development of various mesodermal tissues.

[7] = test system: porcine embryonic stem cells; experiment: qPCR gene expression analysis in feeder cell-free culture; settings: LDN-193189 250 nM, cultured without feeder cells
Description: To analyze the expression level of pluripotency-related genes, differentiation-related genes, and the like depending on the culture period, porcine embryonic stem cells were cultured using “FF-embryonic stem cell culture medium” containing 100 nM LDN-193189 (ff-ESCs^LDN+) and “FF-embryonic stem cell culture medium” not containing LDN-193189 (ff-ESCs^LDN−), without feeder cells, and porcine embryonic stem cells were cultured as a control using the aforementioned embryonic stem cell culture medium along with feeder cells (control ESCs).
The cells were obtained on days 2, 4 and 6 after plating using each medium. Total RNA was extracted using TRIzol reagent (Invitrogen, Carlsbad, USA) and cDNA was synthesized using High-Capacity RNA-to-cDNA Kit (Applied Biosystems, Foster City, USA). cDNA was amplified using the DyNAmo HS SYBR Green qPCR kit (Thermo Fisher Scientific, Waltham, USA) with the primer sets listed in Table 1.
In addition, as shown in C and D of FIG. 2, the effect of treatment with LDN-193189 (250 nM), which is an inhibitor of the SMAD1/5 signaling system, on feeder cell-free culture of porcine embryonic stem cells was confirmed.

[8] = test system: porcine embryonic stem cells; experiment: immunological staining of NANOG and SSEA4 in culture medium containing FBS; settings: culture medium in which KSR was replaced with FBS
Description: In addition, it was confirmed whether the substance helps maintain the pluripotency of porcine embryonic stem cells in a culture medium containing fetal bovine serum (FBS), rather than a serum replacement.
As a result of confirming the pluripotency markers NANOG and SSEA4 through immunological staining, the culture medium containing FBS induced differentiation of porcine embryonic stem cells, and many cell colonies with reduced expression of NANOG and SSEA4 were discovered.

O=C(Nc1cccc2cccnc12)c1ccc(N2C(=O)[C@@H]3[C@H](C2=O)[C@@H]2C=C[C@H]3C2)cc1 [IWR-1]
cytotoxicity [1]: showed cytotoxicity at high concentrations
concentration showing the highest cellular activity ([1]; various concentrations): 0.5 µM
proportion of cells undergoing cell division / proliferation rate as the concentration increased (Ki-67) [2]: gradually increased

c1ccc2c(-c3cnn4cc(-c5ccc(N6CCNCC6)cc5)cnc34)ccnc2c1 [LDN-193189]
final treatment concentration (maximum concentration that inhibits only the BMP signaling system and does not cause cytotoxicity) [1]: 100 nM
expression of the SSEA4 marker [3]: enhanced
spontaneous differentiation [3]: reduced
expression of mesoderm-related genes (qPCR) [4]: reduced
concentration with high cytotoxicity (annexin V staining) [5]: ≥ 1000 nM
expression of genes involved in the development of mesodermal tissues (qPCR) [6]: reduced
expression of genes involved in pluripotency and mesodermal tissue development [7]: restored to the level when cultured on the feeder cells
FBS-induced differentiation (colonies with reduced expression of NANOG and SSEA4) [8]: alleviated
Ki-67 staining result ([2]; from 100 nM to 1000 nM): no significant difference

activin A: ActA (activin; activin A) (R&D Systems), cytokine in culture medium
concentration at which cell activity decreased due to cytotoxicity (WST-8) [1]: ≥ 10 ng/mL
concentration with decreased proliferation rate (Ki-67) [2]: ≥ 0.01 µg/mL

FGF2: fibroblast growth factor 2 (hrFGF2, R&D Systems)
concentration at which cell activity decreased due to cytotoxicity (WST-8) [1]: ≥ 100 ng/mL
proportion of cells undergoing cell division / proliferation rate as the concentration increased (Ki-67) [2]: gradually increased

Cc1c[nH]c(-c2cnc(NCCNc3ccc(C#N)cn3)nc2-c2ccc(Cl)cc2Cl)n1 [CHIR99021]
proportion of cells undergoing cell division / proliferation rate as the concentration increased (Ki-67) [2]: gradually decreased

— patent publication US20250051724A1, “MEDIUM COMPOSITION FOR CULTURING PORCINE PLURIPOTENT STEM CELLS” (SPACE F CORPORATION, priority 2022, published 2025)
